Data taken from article PMC12194779, “Synergistic Insecticidal Activity of Plant Volatile Compounds: Impact on Neurotransmission and Detoxification Enzymes in Sitophilus zeamais” (Insects, 2025).
Where “and” joins values, the source holds several entries; their conditions need not be identical. Equal entries are not always repeated. Where two headings read alike, the source gives them in different places.

How the values were obtained:
Sitophilus zeamais [1] = assay type: in vivo; conditions: for Contact Toxicity LD50i (LC-95%): mixtures and their components (Table 3)
Protocol: (§1) The insects used in this study were Sitophilus zeamais Motschulsky (Coleoptera: Curculionidae), identified by the Instituto Colombiano Agropecuario (ICA) under report number R3823M0000425. […] The adult insects used in all the experiments were 6 to 10 days post-emergence.
Groups of 10 insects, previously placed in Petri dishes, were immobilized by exposure to low temperatures (0 °C). An initial dose of 50.0 µg per adult was applied topically to the dorsal thorax of each insect using aliquots of 0.20 µL from 0.25 mg/µL solutions in n-hexane. […] All treatments were performed in two independent experiments, each with four replicates. Insect mortality was assessed after 24 h, and mortality percentages were calculated using Abbott’s correction formula (Equation (1)).
(§2) Mixtures predicted by the RSM were prepared based on mole fractions. […] Four replicates were performed for each treatment and control across two independent experimental runs.
Dose reduction indices (DRIs) were also calculated to estimate how much the dose of each compound in a synergistic combination could be reduced to achieve a 50% effect (Equation (4)). DRIs were interpreted as favorable when >1, neutral at 1, and unfavorable when <1.

[2] = system: glutathione S-transferase (GST) activity in S. zeamais; assay: GST activity assay (modified Habig) with S. zeamais protein extract; assay type: biochemical, Sitophilus zeamais; conditions: 120 mg/L
Protocol: Enzymatic assays were performed in the assay buffer, consisting of 0.1 M potassium phosphate buffer (pH 7.2). The compounds and mixtures evaluated in the in vitro assays were prepared in the same buffer supplemented with 0.5% (v/v) Triton X-100 (Sigma-Aldrich®, Saint Louis, MO, USA).
A modified version of the method described by Oviedo et al. was used. Adults of S. zeamais (8 g; ~3125 insects) were frozen in liquid nitrogen, homogenized in a 1:10 ratio with assay buffer, and centrifuged at 13,000× g for 60 min at 4 °C. The supernatant was filtered, and 20 mM benzamidine was added. The extracts were stored in 5 mL aliquots at −20 °C. Preliminary assays were performed to quantify the specific activity of AChE (0.02–1.00 U/mL), GST (0.1–0.8 U/mL), and CAT (0.1–25 U/mL), and to optimize assay conditions (enzyme dilution: 1/8 to 1% v/v; substrate concentrations: 2 × km or within assay linearity). Each experiment was performed independently three times, with three technical replicates per experiment.
A modified version of Habig’s method was used. The protein extract (50 µL; 0.59 U/mL) was incubated with 50 µL of the compound or mixture (120 mg/L), followed by 50 µL each of CDNB and reduced glutathione (GSH). Kinetic absorbance was measured at 340 nm for 8 min. Blanks (without substrate) and quercetin (positive control) were included. Inhibition (%) was calculated using Equation (5), and treatment differences were evaluated via parametric ANOVA (α = 0.05) in GraphPad Prism 8.0.2 [42, 43]. Each experiment was performed independently three times, with three technical replicates per experiment.(5) % Inhibition=1−Am−AB/AC ×100 where Am is the absorbance of the sample, AB is the absorbance of the blank, and AC is the absorbance of the negative control.

Sitophilus zeamais [3] = assay: whole plant or invertebrate; conditions: for LC50 / EC90: Sitophilus zeamais; for EC90: read-out: Fumigant Toxicity LC90 (95% FL)
Protocol: as §1
The treated disks were affixed to the inner surface of the screw cap of 22 mL glass vials. […] All treatments were performed in two independent experiments, each with five replicates.
as §2
Dose reduction indices (DRIs) were also calculated to estimate how much the dose of each compound in a synergistic combination could be reduced to achieve a 50% effect (Equation (4)). DRIs were interpreted as favorable when >1, neutral at 1, and unfavorable when <1. Values above the log DRI = 0 line indicate favorable dose reductions.(4) (IRD)i=CL50i(fax)i/(1−(fax)i)^1/mi/(D)i

AChE of S. zeamais = assay: AChE activity assay (modified Ellman) with S. zeamais protein extract; assay type: biochemical, Sitophilus zeamais; parameters: key to AChE Effect Inhibitor Type: C: competitive inhibitor; NC: non-competitive inhibitor; conditions: for AChE Effect Inhibitor Type: Lineweaver–Burk; for Ki / AChE Effect IC50 ± SD: S. zeamais protein extract; for Ki: read-out: AChE Effect ki ± SD (inhibitory constant)
Protocol: The compounds and mixtures evaluated in the in vitro assays were prepared in the same buffer supplemented with 0.5% (v/v) Triton X-100 (Sigma-Aldrich®, Saint Louis, MO, USA).
The supernatant was filtered, and 20 mM benzamidine was added. The extracts were stored in 5 mL aliquots at −20 °C. Preliminary assays were performed to quantify the specific activity of AChE (0.02–1.00 U/mL), GST (0.1–0.8 U/mL), and CAT (0.1–25 U/mL), and to optimize assay conditions (enzyme dilution: 1/8 to 1% v/v; substrate concentrations: 2 × km or within assay linearity).
Then, 50 µL of DTNB and 50 µL of ATChI were added. […] Inhibition percentages were calculated using Equation (5).

[4] = 24 h, read-out: Fumigant Toxicity LC50i (LC-95%)
[5] = in Homo sapiens, 24 h, read-out: Fumigant Toxicity LC50 (95% FL)
[6] = read-out: LC50 values, fumigant activity (Figure 3)

Molecule | Contact Toxicity LD50 (95% FL) (Sitophilus zeamais [1]; topical, 24 h after exposure) | Contact Toxicity LD90 (95% FL) (Sitophilus zeamais [1]; topical, 24 h after exposure) | LC50 (Sitophilus zeamais [3]; [4]) [µg/mL] | LC50 (Sitophilus zeamais [3]; [5]) | EC90 (Sitophilus zeamais [3]; in Homo sapiens, 24 h) | other results
CCCCCCCC(=O)CCC [Compound C34, 4-Undecanone] | 37.05 (34.09–40.01) µg/Adult | 53.95 (49.63–60.68) µg/Adult |  |  |  | 
C=CCc1ccc2c(c1)OCO2 [Compound C32, Safrole] | 36.31 (30.15–42.37) µg/Adult | 83.04 (73.50–96.63) µg/Adult |  |  |  | Contact toxicity, times less active than biosynthetic precursors C26 and C31 (Sitophilus zeamais [1]; in vivo): 1.5 times
CC(=O)OC/C=C(\C)CCC=C(C)C [Compound C37, Geranyl acetate] | 73.00 (65.98–81.05) µg/Adult | 126.06 (112.84–146.08) µg/Adult |  |  |  | 
CC(C)=CCC/C(C)=C/C=O [Compound C27, Citral] |  | 32.68 (29.77–36.82) µg/Adult |  |  |  | 
CC1=CCC(C(C)C)=CC1 [Compound C21, γ-Terpinene] |  |  | 108 | 108 µg/mL and 792 µM | 188 µg/mL and 1.38 mM | GST Inhibition λ340 (%) [2]: 25.9%
CC1=CC[C@H]2[C@@H](C1)C2(C)C [Compound C15, δ-3-Carene] |  |  | 80.3 | 80.3 µg/mL and 590 µM | 136 µg/mL and 997 µM | AChE inhibition type (Lineweaver–Burk plots), in words (AChE of S. zeamais): non-competitive inhibition; AChE Effect Inhibitor Type (AChE of S. zeamais): NC; Ki (AChE of S. zeamais): 2.85 ± 0.05 µM; GST Inhibition λ340 (%) [2]: 7.3%
Isoeugenol [Compound C31] | 29.1 (24.40–34.21) µg/Adult | 66.2 (57.28–80.01) µg/Adult |  |  |  | 
CC1C(=O)CC2(C(C)C)CC12 (stereo not drawn) [Compound C6, α, β-Thujone (70:10)] | 32.04 (29.44–34.42) µg/Adult | 44.67 (41.56–49.34) µg/Adult |  | 4.34 µg/mL and 28.5 µM | 6.81 µg/mL and 44.7 µM | 
CC1(C)C(C=C(Cl)Cl)C1C(=O)OC(C#N)c1cccc(Oc2ccccc2)c1 (stereo not shown) [Cypermethrin, reference compound] | 10.492 (0.00–29.96) µg/Adult | 35.79 (21.98–84.37) µg/Adult |  |  |  | Contact Toxicity LD50i (LC-95%) (Sitophilus zeamais [1]): 10.49 (0.10–19.96) µg/Adult; Contact Toxicity LD50i (LC-95%) (Sitophilus zeamais [1]; listed as cypermethrin): 10.49 µg/Adult
C=CCc1ccc(OC)cc1 [Compound C11, Estragole] |  |  | 30.5 | 30.5 µg/mL and 206 µM | 57.5 µg/mL and 388 µM | AChE inhibition type (Lineweaver–Burk plots), in words (AChE of S. zeamais): competitive inhibition; AChE Effect Inhibitor Type (AChE of S. zeamais): C; AChE Effect IC50 ± SD (AChE of S. zeamais): 27.41 ± 1.64 µg/mL; Ki (AChE of S. zeamais): 159 ± 6.34 µM; Contact Toxicity LD90 (95% FL) (Sitophilus zeamais [1]; in vivo): 79.66 (68.62–99.73) µg/Adult; GST Inhibition λ340 (%) [2]: ~ 17.5% and 17.6%
CC1=CC(=O)C(C(C)C)CC1 (stereo not shown) [Compound C22, Piperitone] |  | 14.70 (13.25–16.96) µg/Adult |  | 4.38 µg/mL and 28.8 µM | 6.19 µg/mL and 40.7 µM | 
CCCCCCCC(C)=O [Compound C9, 2-Nonanone] | 31.86 (30.27–33.17) µg/Adult | 39.69 (38.01–42.15) µg/Adult |  | 9.09 µg/mL and 63.9 µM | 13.7 µg/mL and 96.5 µM | 
C=C1CCC2(C(C)C)CC12 (stereo not shown) [Compound C18, Sabinene] |  |  | 68.7 | 68.7 µg/mL and 504 µM | 102 µg/mL and 750 µM | GST Inhibition λ340 (%) [2]: 25.9%; LC50 (Sitophilus zeamais [3]; [6]): 68.6 µg/mL
CC1(C)C(=O)[C@]2(C)CC[C@H]1C2 [Compound C8, 1R-(−)-Fenchone] | 34.65 (32.19–37.08) µg/Adult | 48.33 (45.12–52.78) µg/Adult |  | 10.6 µg/mL and 69.6 µM | 17.1 µg/mL and 112 µM | 
C=C1CCC2CC1C2(C)C (stereo not drawn) [Compound C17, β-Pinene] |  |  |  |  | 151 µg/mL | 
C=C(C)[C@@H]1CC[C@@H](C)CC1=O [Compound C23, 2S,5R-Isopulegone] |  | 18.48 (16.56–21.64) µg/Adult | 2.37 | 2.37 µg/mL and 15.6 µM | 3.88 µg/mL and 25.5 µM | Contact Toxicity LD50i (LC-95%) (Sitophilus zeamais [1]): 11.14 µg/Adult; GST Inhibition λ340 (%) [2]: 19.4%
C=C(C)C1CC=C(C)CC1 (racemic) [Compound C16, DL-Limonene (1:1)] |  |  | 88.7 | 88.7 µg/mL and 651 µM | 136 µg/mL and 999 µM | AChE inhibition type (Lineweaver–Burk plots), in words (AChE of S. zeamais): non-competitive inhibition; AChE Effect Inhibitor Type (AChE of S. zeamais): NC; AChE Effect IC50 ± SD (AChE of S. zeamais): 26.69 ± 2.90 µg/mL; Ki (AChE of S. zeamais): 79.64 ± 0.55 µM; GST Inhibition λ340 (%) [2]: 7.4%
CCCCCCCCCC(C)=O [Compound C36, 2-Undecanone] | 42.86 (40.60–45.30) µg/Adult | 57.13 (53.43–62.83) µg/Adult |  |  |  | 
COP(=O)(OC)OC=C(Cl)Cl [Dichlorvos, reference compound] |  |  | 2.17 | 2.17 µg/mL and 9.84 µM | 4.57 µg/mL and 20.7 µM | AChE Effect IC50 ± SD (AChE of S. zeamais): 0.0096 ± 0.00208 µg/mL; Fumigant Toxicity LC50i (LC-95%) (Sitophilus zeamais [3]; mixtures and their components (Table 3)): 2.17 (1.53–3.81) mg/L
CC(C)=CCC/C(C)=C/CO [Compound C30, Geraniol] | 28.13 (25.70–30.49) µg/Adult | 41.06 (37.98–45.41) µg/Adult |  |  |  | 
C=CC(C)(O)CCC=C(C)C (stereo not shown) [Compound C28, Linalool] | 21.87 (19.09–24.23) µg/Adult | 36.23 (33.20–40.64) µg/Adult |  |  |  | 
CCCCCCCCC(C)=O [Compound C35, 2-Decanone] | 38.04 (35.29–40.84) µg/Adult | 57.17 (52.97–63.12) µg/Adult |  |  |  | LC50 (Sitophilus zeamais [3]; [6]): > 150 µg/mL
CC1=CCC(=C(C)C)CC1 [Compound C24, Terpinolene] |  |  |  | 52.1 µg/mL and 338 µM | 88.8 µg/mL and 576 µM | 
